Assay results reported in patent publication US20220183282A1, “Fatty Acid Derivatives For Improving The Effect Of Agrochemical Actives” (priority 2019, published 2022).

Assay: Dynamic surface tension, bubble pressure method (BP2100 tensiometer, Krüss)
Format: physicochemical
Experimental: Dynamic surface tension was determined via the bubble pressure method (BP2100 tensiometer, Krüss). Given a timespan of relevance for the spray application of agrochemicals in aqueous dilution (called the surface age in the bubble pressure method) of 200 milliseconds (ms), the value for dynamic surface tension in [mN/m] correlates with the adhesion on plants that are difficult to wet, such as barley (cereal). A value of 50 mN/m (at 20-21° C.) with respect to water (72.8 mN/m) results in an improvement in the adhesion from “zero adhesion” (0%) to about 50% (Baur P., Pontzen R.; 2007; Basic features of plant surface wettability and deposit formation and the impact of adjuvant; in R. E. Gaskin ed. Proceedings of the 8th International Symposium on Adjuvants for Agrochemicals; Publisher: International Society for Agrochemical Adjuvants (ISAA), Columbus, Ohio, USA).

SMILES: CCCCCCCCC(=O)OCCOCCOCCOCCOCCOCCOC [A1, Pelargonic acid 6 EO ester methyl ether]
- Dynamic Surface tension (0.3 g/L, 20 ms): 61.2 mN/m
- Dynamic Surface tension (0.3 g/L, 50 ms): 57.3 mN/m
- Dynamic Surface tension (0.3 g/L, 100 ms): 54.4 mN/m
- Dynamic Surface tension (0.3 g/L, 200 ms): 51.5 mN/m
- Dynamic Surface tension (1 g/L, 20 ms): 47.6 mN/m
- Dynamic Surface tension (1 g/L, 50 ms): 44.5 mN/m
- Dynamic Surface tension (1 g/L, 100 ms): 42.1 mN/m
- Dynamic Surface tension (1 g/L, 200 ms): 39.8 mN/m
- Dynamic Surface tension (3 g/L, 20 ms): 33.7 mN/m
- Dynamic Surface tension (3 g/L, 50 ms): 32.0 mN/m
- Dynamic Surface tension (3 g/L, 100 ms): 30.8 mN/m
- Dynamic Surface tension (3 g/L, 200 ms): 29.5 mN/m
- Dynamic Surface tension (10 g/L, 20 ms): 30.2 mN/m
- Dynamic Surface tension (10 g/L, 50 ms): 29.3 mN/m
- Dynamic Surface tension (10 g/L, 100 ms): 28.6 mN/m
- Dynamic Surface tension (10 g/L, 200 ms): 27.9 mN/m
